The structures appear in SMILES notation.

In this experiment the test system is Aβ42 (human neuroglioma H4 cells expressing human wild type APP751). In words: In vitro cell screening assay with sandwich ELISA quantification of Aβ42 peptide. The class given is cell-based. To be noted: H4 cells stably expressing human wild type APP751; Pro293 chemically defined medium; compounds 0.003-10 μM; incubated overnight (16-18 h); supernatant Aβ42 by sandwich ELISA; normalized to DMSO and DAPT; read-out: Aβ42 H4 Prot Fre IC50. The method, boiled down: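 H4 neuroglioma cells stably expressing human wild-type APP751 were treated in Pro293 medium with compounds (0.003-10 μM, 0.33% DMSO) for 16-18 h at 37° C. Secreted Aβ42 measured by sandwich ELISA (C-terminal capture, 4G8-HRP detection, TMB, 450 nm). IC50 by variable-slope sigmoidal regression on percent of DMSO control.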
By IC50 is commonly meant the concentration that inhibits the measured activity by half. Regarding `Cc1cn(-c2ccc(Nc3ncc4c(n3)N(C)C(c3cc(F)cc(F)c3)CO4)cc2C#N)cn1` (single isomer, unassigned; (-)) [Example 203B, (−)-5-((7-(3,5-difluorophenyl)-8-methyl-7,8-dihydro-6H-pyrimido [5,4-b] [1, 4]oxazin-2-yl)amino)-2-(4-methyl-1H-imidazol-1-yl) benzonitrile], the IC50 was found to be 210 nM.

Consider `COc1cc(Nc2ncc3c(n2)N(C)C2(CC2)CO3)ccc1-c1cnn(C)c1` [Example 269], for which the IC50 was 703 nM.

For `COc1nc(Nc2ncc3c(n2)N(C)C(c2cc(F)c(F)c(F)c2)CO3)c(F)cc1-c1cnn(C)c1` (racemic) [Example 196], the IC50 was 544 nM.

`Cc1cc(-c2ccc(Nc3ncc4c(n3)N(C)C(c3cc(F)cc(F)c3)CO4)cc2)ccn1` (racemic) [Example 28]: the IC50 amounted to 90 nM.

Turning to `Cc1cc(-c2ccc(Nc3ncc4c(n3)N(C)C(c3ccccc3)CO4)cc2)ccn1` (single isomer, unassigned; (-)) [Example 24B], the IC50 is 1020 nM.

Turning to `Cc1cn(-c2ccc(Nc3ncc4c(n3)N(C)C(c3ccccc3OC(F)(F)F)CO4)cc2F)cn1` (single isomer, unassigned; (+)) [Example 64A], the IC50 is 402 nM.

As to `Cc1cc(-c2ccc(Nc3ncc4c(n3)N(C)C(c3ccccc3)CO4)cc2F)ccn1` (single isomer, unassigned; (-)) [Example 27B], the half-maximal inhibitory concentration (IC50) worked out at 2100 nM.

`COc1cc(Nc2ncc3c(n2)N2CC(F)(F)C[C@H]2CO3)cnc1-n1cnc(C)c1` [Example 298, (S)-8,8-difluoro-N-(5-methoxy-6-(4-methyl-1H-imidazol-1-yl)pyridin-3-yl)-6a, 7,8,9-tetrahydro-6H-pyrimido [5,4-b] pyrrolo [1,2-d] [1, 4] oxazin-2-amine]: the IC50 stood at 177 nM.

For the compound `COc1cc(Nc2ncc3c(n2)N(C)C(c2cc(F)c(F)c(F)c2)CO3)cnc1-n1cnc(C)c1` (single isomer, unassigned; (-)) [Example 182B], the IC50 is 176 nM.

With `Cc1cn(-c2ccc(Nc3ncc4c(n3)N(C)C(c3cc(F)cc(F)c3)CO4)cc2)cn1` (single isomer, unassigned; (+)) [Example 23B], the IC50 stood at 32 nM.

With `Cc1cn(-c2ncc(Nc3ncc4c(n3)N(C)C(c3cc(F)cc(F)c3)CO4)cc2Cl)cn1` (single isomer, unassigned; (+)) [Example 210A], the IC50 stood at 41 nM.

Turning to `Cc1cn(-c2ccc(Nc3ncc4c(n3)N(C)C(c3cc(F)c(F)c(F)c3)CO4)cc2F)cn1` (single isomer, unassigned; (-)) [Example 118B], the 50% inhibitory concentration (IC50) came out at 1340 nM.

For `COc1cc(Nc2ncc3c(n2)N(C)C(c2ccc(F)cc2F)CO3)ccc1-n1cnc(C)c1` (single isomer, unassigned; (+)) [Example 48B], the IC50 worked out at 20 nM.

For the compound `COc1cc(Nc2ncc3c(n2)N(C)C(c2ccc(F)cc2F)CO3)ccc1-n1cnc(C)c1` (racemic) [Example 48], the IC50 is 36 nM.

With `Cc1cn(-c2ccc(Nc3ncc4c(n3)N(C)C(c3cc(F)cc(F)c3)CO4)cc2C(F)F)cn1` (single isomer, unassigned; (+)) [Example 222A], the IC50 was determined as 361 nM.

For the compound `Cc1cc(-c2ccc(Nc3ncc4c(n3)N(C)C(c3ccc(F)cc3F)CO4)cc2F)ccn1` (single isomer, unassigned; (+)) [Example 66A], the IC50 was determined as 488 nM.

Consider `COc1cc(Nc2ncc3c(n2)N(C)C(c2ccccc2Cl)CO3)ccc1-c1ccnc(C)c1` (single isomer, unassigned; (+)) [Example 85B], for which the IC50 was 130 nM.

In the case of `COc1cc(Nc2ncc3c(n2)N(C)C(C2(C(F)(F)F)CC2)CO3)cnc1-n1cnc(C)c1` (single isomer, unassigned; (+)) [Example 247B], the IC50 amounted to 5 nM.

For `COc1cc(Nc2ncc3c(n2)N(C)C(c2ccc(F)cc2)CO3)ccc1-n1cnc(C)c1` (single isomer, unassigned; (-)) [Example 49A], the IC50 is 191 nM.

`Cc1cn(-c2ccc(Nc3ncc4c(n3)N(C)C(C)CO4)cc2C#N)cn1` (single isomer, unassigned; (-)) [Example 205B, (−)-5-((7,8-dimethyl-7,8-dihydro-6H-pyrimido [5,4-b] [1, 4]oxazin-2-yl)amino)-2-(4-methyl-1H-imidazol-1-yl) benzonitrile]: the IC50 came to 259 nM.

With `Cc1cn(-c2ccc(Nc3ncc4c(n3)N(C)C(C)CO4)cc2F)cn1` (single isomer, unassigned; (-)) [Example 108A], the IC50 turned out to be 567 nM.

For `COc1ccc(C)c(C2COc3cnc(Nc4ccc(-n5cnc(C)c5)c(OC)c4)nc3N2C)c1` (single isomer, unassigned; (-)) [Example 175B], the IC50 worked out at 95 nM.

With `COc1cc(Nc2ncc3c(n2)N(C)C(c2cc(C(F)(F)F)ccc2Cl)CO3)ccc1-n1cnc(C)c1` (single isomer, unassigned; (+)) [Example 88A], the IC50 is 37 nM.

In the case of `COc1cc(Nc2ncc3c(n2)N(C)C(c2ccccc2C(F)(F)F)CO3)ccc1-n1cnc(C)c1` (single isomer, unassigned; (+)) [Example 55B], the IC50 came out at 66 nM.

As to `COc1cc(Nc2ncc3c(n2)N(C)[C@@H](C2CCC2)CO3)cnc1-n1cnc(C)c1` [Example 235], the IC50 came out at 17 nM.

As to `Cc1cn(-c2ccc(Nc3ncc4c(n3)N(C)C(C)CO4)cc2F)cn1` (single isomer, unassigned; (+)) [Example 108B], the IC50 turned out to be 108 nM.

With `Cc1cn(-c2ccc(Nc3ncc4c(n3)N(C)C(c3cc(F)cc(F)c3)CO4)cc2F)cn1` (single isomer, unassigned; (-)) [Example 33B], the half-inhibitory concentration (IC50) was 389 nM.

Take `COc1cc(Nc2ncc3c(n2)N(C)C(c2ccc(C(F)(F)F)cc2C(F)(F)F)CO3)ccc1-n1cnc(C)c1` (single isomer, unassigned; (+)) [Example 168B]: the IC50 turned out to be 76 nM.

As to `COc1cc(Nc2ncc3c(n2)N(C)C(C(F)(F)F)CO3)cnc1-n1cnc(C)c1` (single isomer, unassigned; (+)) [Example 193A], the IC50 worked out at 908 nM.

As to `COc1nc(Nc2ncc3c(n2)N(C)C(c2ccccc2C)CO3)ccc1-n1cnc(C)c1` (single isomer, unassigned; (+)) [Example 180B], the half-inhibitory concentration (IC50) worked out at 374 nM.

In the case of `CN1c2nc(Nc3ccc(C#N)cc3)ncc2OCC1C(F)(F)F` (single isomer, unassigned; (+)) [Example 226A, (+)-4-((8-methyl-7-(trifluoromethyl)-7,8-dihydro-6H-pyrimido [5,4-b] [1, 4]oxazin-2-yl)amino) benzonitrile], the IC50 is more than 3000 nM.

Consider `COc1nc(Nc2ncc3c(n2)N(C)C(c2cc(F)cc(F)c2)CO3)ccc1-c1ccnc(C)n1` (single isomer, unassigned; (-)) [Example 183B], for which the IC50 is more than 3000 nM.

Take `COc1cc(Nc2ncc3c(n2)N(C)C(C2CCC(F)(F)CC2)CO3)cnc1-n1cnc(C)c1` (single isomer, unassigned; (-)) [Example 221B]: the IC50 is 325 nM.

As to `COc1cc(Nc2ncc3c(n2)N(C)C2(CCOCC2)CO3)ccc1-n1cnc(C)c1` [Example 273], the IC50 stood at 111 nM.

For the compound `Cc1cc(-c2ccc(Nc3ncc4c(n3)N(C)C(c3cc(F)c(F)c(F)c3)CO4)cc2)ccn1` (single isomer, unassigned; (+)) [Example 37A], the IC50 worked out at 59 nM.
